Experimental data reported in article doi:10.1101/614586v1 (biorxiv, 2019).

Assays:
[1] = target: T1, human RAD54 (Homo sapiens, UniProt Q92698); test: biochemical
T1 sequence (Q92698 1-747): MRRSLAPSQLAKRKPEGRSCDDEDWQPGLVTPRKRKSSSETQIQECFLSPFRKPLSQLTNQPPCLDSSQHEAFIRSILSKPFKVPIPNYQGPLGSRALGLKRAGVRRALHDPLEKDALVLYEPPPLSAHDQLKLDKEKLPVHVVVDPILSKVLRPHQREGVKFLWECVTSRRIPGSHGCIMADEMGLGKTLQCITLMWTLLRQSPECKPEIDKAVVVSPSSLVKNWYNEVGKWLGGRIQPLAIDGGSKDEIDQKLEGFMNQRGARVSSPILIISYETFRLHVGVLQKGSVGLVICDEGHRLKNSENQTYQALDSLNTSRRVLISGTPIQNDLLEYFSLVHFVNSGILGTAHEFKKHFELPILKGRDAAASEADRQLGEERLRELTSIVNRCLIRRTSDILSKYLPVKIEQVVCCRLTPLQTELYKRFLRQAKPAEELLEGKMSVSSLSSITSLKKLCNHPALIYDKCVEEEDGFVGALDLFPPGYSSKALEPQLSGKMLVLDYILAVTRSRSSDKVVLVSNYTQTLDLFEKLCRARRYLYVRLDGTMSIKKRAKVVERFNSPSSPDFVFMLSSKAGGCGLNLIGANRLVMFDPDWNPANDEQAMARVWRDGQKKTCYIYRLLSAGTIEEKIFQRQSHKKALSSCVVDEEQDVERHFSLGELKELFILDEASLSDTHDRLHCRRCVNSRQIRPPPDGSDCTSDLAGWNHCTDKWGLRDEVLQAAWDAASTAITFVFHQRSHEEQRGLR

[2] = target: T2, H. sapiens HLTF (Homo sapiens, UniProt Q14527); test: malachite green phosphate ATPase assay; type: biochemical
T2 sequence (Q14527 1-1009): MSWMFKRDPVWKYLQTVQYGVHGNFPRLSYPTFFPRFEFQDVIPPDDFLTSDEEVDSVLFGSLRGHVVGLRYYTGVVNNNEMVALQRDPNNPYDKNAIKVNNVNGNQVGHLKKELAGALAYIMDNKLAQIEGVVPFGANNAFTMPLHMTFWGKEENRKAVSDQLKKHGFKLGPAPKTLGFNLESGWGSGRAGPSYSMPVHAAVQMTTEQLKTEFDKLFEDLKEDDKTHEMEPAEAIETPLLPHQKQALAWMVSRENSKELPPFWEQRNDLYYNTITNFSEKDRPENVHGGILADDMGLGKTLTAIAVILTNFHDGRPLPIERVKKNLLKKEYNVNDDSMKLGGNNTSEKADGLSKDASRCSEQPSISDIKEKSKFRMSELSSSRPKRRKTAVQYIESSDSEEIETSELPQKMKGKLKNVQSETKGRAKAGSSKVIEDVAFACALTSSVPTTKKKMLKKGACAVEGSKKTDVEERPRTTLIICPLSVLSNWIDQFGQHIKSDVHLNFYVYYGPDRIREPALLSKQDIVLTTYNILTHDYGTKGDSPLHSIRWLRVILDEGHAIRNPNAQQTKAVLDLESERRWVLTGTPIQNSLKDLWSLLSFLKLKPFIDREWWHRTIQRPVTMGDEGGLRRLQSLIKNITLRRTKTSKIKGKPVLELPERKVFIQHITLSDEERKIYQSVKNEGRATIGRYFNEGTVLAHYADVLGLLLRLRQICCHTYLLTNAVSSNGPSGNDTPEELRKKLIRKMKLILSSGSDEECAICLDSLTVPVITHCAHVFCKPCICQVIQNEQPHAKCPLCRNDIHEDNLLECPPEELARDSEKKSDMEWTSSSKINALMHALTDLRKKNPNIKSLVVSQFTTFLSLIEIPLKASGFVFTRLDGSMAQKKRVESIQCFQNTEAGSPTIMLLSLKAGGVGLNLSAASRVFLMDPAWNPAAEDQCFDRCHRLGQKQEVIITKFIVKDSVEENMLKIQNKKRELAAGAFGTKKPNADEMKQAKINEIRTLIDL

[3] = target: T3, S. cerevisiae Rad54 (Saccharomyces cerevisiae, UniProt P32863); test: malachite green phosphate ATPase assay; type: biochemical
T3 sequence (P32863 1-898): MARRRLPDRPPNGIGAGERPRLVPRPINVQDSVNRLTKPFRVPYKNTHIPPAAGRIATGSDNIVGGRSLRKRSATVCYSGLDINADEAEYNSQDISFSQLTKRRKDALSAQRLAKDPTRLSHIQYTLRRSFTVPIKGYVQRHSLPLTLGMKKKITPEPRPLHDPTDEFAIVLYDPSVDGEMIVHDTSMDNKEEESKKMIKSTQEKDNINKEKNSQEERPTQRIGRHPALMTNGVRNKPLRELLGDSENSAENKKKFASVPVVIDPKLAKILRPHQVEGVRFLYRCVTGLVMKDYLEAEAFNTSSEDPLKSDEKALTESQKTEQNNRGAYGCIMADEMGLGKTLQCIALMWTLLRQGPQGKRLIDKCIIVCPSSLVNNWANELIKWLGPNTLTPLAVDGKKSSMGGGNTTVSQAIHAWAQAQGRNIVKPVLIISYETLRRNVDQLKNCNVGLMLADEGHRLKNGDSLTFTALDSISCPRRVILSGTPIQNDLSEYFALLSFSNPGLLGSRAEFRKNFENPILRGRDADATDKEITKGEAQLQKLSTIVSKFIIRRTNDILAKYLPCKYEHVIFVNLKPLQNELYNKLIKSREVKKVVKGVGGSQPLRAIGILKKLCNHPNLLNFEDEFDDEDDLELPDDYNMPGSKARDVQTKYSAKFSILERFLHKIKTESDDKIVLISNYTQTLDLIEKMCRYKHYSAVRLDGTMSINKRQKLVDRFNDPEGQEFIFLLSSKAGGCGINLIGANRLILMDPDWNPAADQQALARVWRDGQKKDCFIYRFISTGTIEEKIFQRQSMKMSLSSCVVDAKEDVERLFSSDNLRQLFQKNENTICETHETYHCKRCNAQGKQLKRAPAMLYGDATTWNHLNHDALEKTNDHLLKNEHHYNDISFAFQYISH

[4] = target: T4, E. coli RecA (Escherichia coli, UniProt P0A7G6); test: malachite green phosphate ATPase assay; type: biochemical
T4 sequence (P0A7G6 2-353): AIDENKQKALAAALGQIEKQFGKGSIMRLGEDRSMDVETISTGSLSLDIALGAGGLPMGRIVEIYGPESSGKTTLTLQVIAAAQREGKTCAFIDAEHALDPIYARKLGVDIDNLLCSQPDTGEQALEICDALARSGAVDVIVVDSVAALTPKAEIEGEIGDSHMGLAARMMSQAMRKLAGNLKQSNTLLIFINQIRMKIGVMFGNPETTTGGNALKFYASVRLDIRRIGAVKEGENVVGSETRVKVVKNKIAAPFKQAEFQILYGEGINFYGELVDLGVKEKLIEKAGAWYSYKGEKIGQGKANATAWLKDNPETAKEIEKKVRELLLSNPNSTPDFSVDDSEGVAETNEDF

[5] = target: T1, human RAD54; test: malachite green phosphate ATPase assay; type: biochemical
[6] = target: T5, S. cerevisiae Rdh54/Tid1 (Saccharomyces cerevisiae, UniProt P38086); test: malachite green phosphate ATPase assay; type: biochemical
T5 sequence (P38086 35-958 limits assumed): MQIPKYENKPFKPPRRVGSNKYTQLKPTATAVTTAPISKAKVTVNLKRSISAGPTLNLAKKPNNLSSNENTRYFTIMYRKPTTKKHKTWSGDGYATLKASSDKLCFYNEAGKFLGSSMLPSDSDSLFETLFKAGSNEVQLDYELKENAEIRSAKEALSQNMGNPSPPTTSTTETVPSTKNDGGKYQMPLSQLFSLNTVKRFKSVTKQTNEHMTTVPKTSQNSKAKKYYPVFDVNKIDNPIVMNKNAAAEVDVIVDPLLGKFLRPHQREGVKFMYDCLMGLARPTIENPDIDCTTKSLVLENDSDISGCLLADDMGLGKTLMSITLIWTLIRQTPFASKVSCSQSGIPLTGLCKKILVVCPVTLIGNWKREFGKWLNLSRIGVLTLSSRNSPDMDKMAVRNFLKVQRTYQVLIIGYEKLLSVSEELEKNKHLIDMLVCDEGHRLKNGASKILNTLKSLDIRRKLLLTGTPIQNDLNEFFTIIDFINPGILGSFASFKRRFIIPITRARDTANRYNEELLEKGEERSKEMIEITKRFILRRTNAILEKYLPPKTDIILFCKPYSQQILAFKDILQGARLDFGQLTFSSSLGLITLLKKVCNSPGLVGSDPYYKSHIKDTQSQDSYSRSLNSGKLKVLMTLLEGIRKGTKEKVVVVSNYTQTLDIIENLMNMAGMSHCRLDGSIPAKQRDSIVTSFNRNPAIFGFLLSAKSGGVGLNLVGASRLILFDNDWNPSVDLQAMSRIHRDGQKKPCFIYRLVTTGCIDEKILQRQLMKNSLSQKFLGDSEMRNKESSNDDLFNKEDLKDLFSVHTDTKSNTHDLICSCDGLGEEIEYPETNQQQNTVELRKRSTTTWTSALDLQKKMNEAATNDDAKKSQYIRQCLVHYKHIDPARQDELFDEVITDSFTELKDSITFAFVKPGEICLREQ

[7] = target: H. sapiens VCP/p97 (Homo sapiens, UniProt P55072); test: malachite green phosphate ATPase assay; type: biochemical
Sequence of H. sapiens VCP/p97 (P55072 2-806): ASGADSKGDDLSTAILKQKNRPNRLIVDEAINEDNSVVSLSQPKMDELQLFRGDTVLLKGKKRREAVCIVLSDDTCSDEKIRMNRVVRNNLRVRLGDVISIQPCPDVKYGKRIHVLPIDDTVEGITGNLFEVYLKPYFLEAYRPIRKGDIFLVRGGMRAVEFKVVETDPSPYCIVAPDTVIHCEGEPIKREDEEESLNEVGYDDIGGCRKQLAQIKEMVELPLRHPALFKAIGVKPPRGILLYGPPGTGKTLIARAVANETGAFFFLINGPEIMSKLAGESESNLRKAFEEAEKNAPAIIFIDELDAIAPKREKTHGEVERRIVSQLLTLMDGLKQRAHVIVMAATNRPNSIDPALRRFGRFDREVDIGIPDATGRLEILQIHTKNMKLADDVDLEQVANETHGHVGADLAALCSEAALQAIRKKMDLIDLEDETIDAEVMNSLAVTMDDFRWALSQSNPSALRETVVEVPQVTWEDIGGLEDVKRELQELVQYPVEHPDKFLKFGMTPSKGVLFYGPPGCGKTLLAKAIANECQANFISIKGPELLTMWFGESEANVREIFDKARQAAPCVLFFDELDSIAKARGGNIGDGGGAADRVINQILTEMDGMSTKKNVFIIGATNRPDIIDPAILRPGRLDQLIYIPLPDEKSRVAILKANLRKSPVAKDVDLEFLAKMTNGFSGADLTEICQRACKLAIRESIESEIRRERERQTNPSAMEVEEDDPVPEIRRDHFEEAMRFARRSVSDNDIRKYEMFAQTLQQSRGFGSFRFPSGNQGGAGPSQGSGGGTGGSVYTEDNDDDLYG

[8] = target: T6, H. sapiens SMARCAL1 (Homo sapiens, UniProt Q9NZC9); test: malachite green phosphate ATPase assay; type: biochemical
T6 sequence (Q9NZC9 2-954): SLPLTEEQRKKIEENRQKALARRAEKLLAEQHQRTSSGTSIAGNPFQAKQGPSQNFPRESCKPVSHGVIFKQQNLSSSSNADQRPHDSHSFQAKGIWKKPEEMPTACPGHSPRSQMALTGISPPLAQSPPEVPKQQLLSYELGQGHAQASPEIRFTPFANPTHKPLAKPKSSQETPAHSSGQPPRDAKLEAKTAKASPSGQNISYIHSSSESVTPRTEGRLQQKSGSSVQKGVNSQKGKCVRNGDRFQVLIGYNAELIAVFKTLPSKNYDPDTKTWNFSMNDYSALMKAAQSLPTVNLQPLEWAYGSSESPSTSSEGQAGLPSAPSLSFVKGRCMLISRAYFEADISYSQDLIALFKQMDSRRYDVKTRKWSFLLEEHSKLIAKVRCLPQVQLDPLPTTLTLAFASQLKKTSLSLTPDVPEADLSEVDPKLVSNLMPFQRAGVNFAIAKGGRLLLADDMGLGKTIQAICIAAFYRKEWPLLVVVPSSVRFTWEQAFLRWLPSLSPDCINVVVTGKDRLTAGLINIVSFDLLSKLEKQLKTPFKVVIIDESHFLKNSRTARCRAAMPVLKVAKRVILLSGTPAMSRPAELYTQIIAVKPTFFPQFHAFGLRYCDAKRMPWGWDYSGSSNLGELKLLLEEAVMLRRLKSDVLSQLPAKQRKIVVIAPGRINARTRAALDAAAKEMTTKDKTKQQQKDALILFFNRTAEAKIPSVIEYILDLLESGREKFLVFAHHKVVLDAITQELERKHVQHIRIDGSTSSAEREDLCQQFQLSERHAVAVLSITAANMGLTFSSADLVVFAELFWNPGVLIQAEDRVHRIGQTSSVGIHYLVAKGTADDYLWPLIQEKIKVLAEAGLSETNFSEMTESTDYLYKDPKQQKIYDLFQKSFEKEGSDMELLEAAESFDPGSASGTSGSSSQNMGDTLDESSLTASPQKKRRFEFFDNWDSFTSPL

[9] = target: T1, human RAD54; test: biochemical; conditions: read-out: % inh.
[10] = target: T1, human RAD54; test: biochemical; remark: listed apart in the source

Row | Compound | IC50 [5] | inhibition at 10 µM [9] | further results
1 | Cc1ccc(C)n1CCN1CCNCC1 [54h^o-1] | – | – | IC50 [1]: > 60 µM
2 | CN(C)CCCNCC(O)Cn1c2ccc(Cl)cc2c2cc(Cl)ccc21 (stereo not drawn) [54i-1] | 5 ± 1.05 µM | 68% | IC50 [2]: 377 ± 195 µM; IC50 [3]: 3.8 ± 1.8 µM; IC50 [4]: 0.79 ± 0.05 µM; IC50 [6]: 43.2 ± 2.9 µM; IC50 [7]: > 500 µM; IC50 [8]: 5.7 ± 0.6 µM
3 | Cc1nc2c(=O)n(C)c(=O)nc-2n(C)n1 [54i^P-1a] | – | 44% | –
4 | CCCc1nc2c(=O)n(C)c(=O)nc-2n(C)n1 [54i^P-1b] | – | 61% | –
5 | CCn1nc(-c2ccc(C(F)F)cc2)nc2c(=O)n(C)c(=O)nc1-2 [54i^P-1e] | – | 79% | –
6 | Cc1ccc(C)n1-c1ccc(C(=O)O)c(O)c1 [54i^P-2a] | – | 50% | –
7 | CS(=O)(=O)C1=NSC2=NC(=O)C(=Cc3ccc(SCc4ccc(Cl)cc4)o3)C(=N)N21 [54i^P-3] | – | 27% | –
8 | NC=O [54i^P-4] | – | 36% | –
9 | CC1(C)c2ccccc2N(CCc2nnn[nH]2)c2ccccc21 [tricyc-1] | > 130 µM | – | IC50 [10]: 129 ± 19.7 µM
10 | CC1(C)c2cc(Cl)ccc2N(CCc2nnn[nH]2)c2ccc(Cl)cc21 [tricyc-2] | 3.07 ± 0.7 µM | – | –

The next lines start with results.

Row | IC50 [5] | inhibition at 10 µM [9] | Compound | further results
11 | 16 ± 3 µM | 18% | CC1(C)Cc2c(ccc3ccccc23)C(CCN2CCCCC2)=N1 [54i-2] | –
12 | – | 70% | CCn1nc(-c2ccccc2C)nc2c(=O)n(C)c(=O)nc1-2 [54i^P-1c] | –
13 | – | 49% | CCn1nc(-c2ccc(C)cc2)nc2c(=O)n(C)c(=O)nc1-2 [54i^P-1d] | –
14 | – | 70% | Cc1ccc(C)n1-c1ccc(SCC(=O)O)cc1 [54i^P-2b] | –
15 | 7.65 ± 1.06 µM | – | CC1(C)c2cc(Br)ccc2N(CCc2nnn[nH]2)c2ccc(Br)cc21 [tricyc-3] | –
